Source: PMC9232501, “Results of the phase I CCTG IND.231 trial of CX-5461 in patients with advanced solid tumors enriched for DNA-repair deficiencies” (Nature Communications, 2022)
Where “and” joins values, the source holds several entries; their conditions need not be identical. Equal values may be shown once.

Key:
HCT116 cells [1] = assay: HCT116 cytotoxicity (WST-1 assay) with and without UVA radiation; assay type: cell-based, Human
Protocol: (§1) Fig. 5 Comparison of G4 ligand photosensitization. […] Vertical axis, fractional survival, horizontal axis log10 drug concentration (M) (f) Representative images of CPD immunofluorescent staining under UV and drug treatment conditions for U2OS cells, quantified from biological duplicates in (g) (h) Scale bar = 100um. U2OS cells were treated with drug or vehicle control, then immediately irradiated with UVA 125 mJ/cm^2; and fixed 1 h later for immunofluorescence staining with CPD antibody. g Distribution of mean intensity of CPD level per cell (total n = in labels), with two biological repeats per condition. Vertical axis, mean CPD intensity per cell, horizontal axis, conditions (h) WT or KO XPA HAP1 cells assayed for cytotoxicity. Vertical axis, fractional survival (WST-1 assay). The horizontal axis, log10 drug concentration (M). Error bars = standard deviation of the mean. Three biological repeats per condition.
Human epidermal keratinocytes (HEKa) cells were sourced from Thermo Fisher Scientific, and were grown in EpiLife™ Medium with HKGS. HAP WT and XPA knockout cell lines (Horizon Discovery) were cultured in IMDM, 10% FCS. Human HCT116 cells, U2OS cells (ATCC) were grown in McCoy’s 5 A medium with 10% FBS and L-glutamine. All cell lines are mycoplasma free and have been authenticated by STR or SNP profiling. CX-5461 was provided by Senhwa Biosciences, Inc. PDS is from Sigma-Aldrich, BRACO-19 from Alfa Chemistry, PhENDC3 is from Sigma-Aldrich, γ -H2AX antibody from Abcam (1:1000 for IF) and CPD antibody (1:1500) from Cosmo Bio Ltd. (Catalog number: CAC-NM-DAD-001). The WST-1 assay was performed as previously described, γ H2AX foci staining was performed as previously described. Immunofluorescence staining of CPD was performed according to the protocol from the manufacturer (Cosmo Bio Ltd).

U2OS cells = assay: CPD (cyclobutane pyrimidine dimer) immunofluorescence after UVA 125 mJ/cm^2; assay type: cell-based, Human; conditions: 1 h compound exposure
Protocol: as §1
Human epidermal keratinocytes (HEKa) cells were sourced from Thermo Fisher Scientific, and were grown in EpiLife™ Medium with HKGS. HAP WT and XPA knockout cell lines (Horizon Discovery) were cultured in IMDM, 10% FCS. Human HCT116 cells, U2OS cells (ATCC) were grown in McCoy’s 5 A medium with 10% FBS and L-glutamine. All cell lines are mycoplasma free and have been authenticated by STR or SNP profiling. […]

HCT116 cells [2] = assay: ROS measurement with H2DCFDA before/after UVA 125 mJ/cm^2; assay type: cell-based, Human; conditions: CX-5461 0.1 μM or PDS 10 μM for 1 h
Protocol: ROS measurement with H2DCFDA: HCT116 cells were treated with vehicle, CX-5461 0.1 μM or PDS 10 μM for 1 h, then were added with H2DCFDA for 45 min before initial fluorescence measurement. Cells were then irradiated with UVA 125 mJ/cm^2, and immediately sent for a second fluorescent measurement. The ratio of the second and the first fluorescent measurement was calculated as the level of ROS induced by UVA. Assays were performed in the 1-hour time frame within which UV damage manifests, in contrast to G4 ligand-induced damage which takes 3–4 h to be measurable.
Supplementary Figures and Tables
Supplementary Figure 1. UVA radiation increased double-stranded DNA breaks and ROS.
Representative pictures of g -H2AX immunofluorescent staining with and without UVA radiation, for […]
condition, quantified in (b) Quantile and mean intensity of g-H2AX level per cell, vertical axis. UV and drug factor conditions, horizontal axis. Experiments were repeated two times (biological duplicates) and similar results were obtained. Number of cells as in Figure 5 g (c) The ratio of ROS level measured after UVA irradiation versus before UVA irradiation was calculated. Biological triplicates. The horizontal bar = median. ***P<0.0001, Welch’s t-test; n=8
(1 picture or pasted object on this page, not shown here)

[3] = test system: BRCA2 and BRCA1-deficient tumor models; conditions: in vitro and in vivo, independently of RNA polymerase 1 inhibition; cited from earlier work
G-quadruplex (G4) DNA = test system: G-quadruplex (G4) DNA; parameters: method as in PMID 28211448; conditions: in vitro and in vivo; cited from earlier work

SMILES: Cc1cnc(CNC(=O)c2c(=O)c3ccc(N4CCCN(C)CC4)nc3n3c2sc2ccccc23)cn1 [CX-5461]
- WST-1 reading (source data of fractional survival) (HCT116 cells [1]; 1.00E-07 M, 5mJ/cm2 UV): 0.1726 and 0.1634
- WST-1 reading (source data of fractional survival) (HCT116 cells [1]; 1.00E-07 M, 125 mJ/cm2 UV): 0.1356 and 0.1403
- WST-1 reading (source data of fractional survival) (HCT116 cells [1]; 1.00E-07 M, no UV): 0.3459 and 0.3709
- WST-1 reading (source data of fractional survival) (HCT116 cells [1]; 1.25E-08 M, 5mJ/cm2 UV): 1.8446 and 1.2623
- WST-1 reading (source data of fractional survival) (HCT116 cells [1]; 1.25E-08 M, 125 mJ/cm2 UV): 0.2266 and 0.2178
- WST-1 reading (source data of fractional survival) (HCT116 cells [1]; 1.25E-08 M, no UV): 2.7124 and 3.0988
- WST-1 reading (source data of fractional survival) (HCT116 cells [1]; 1.56E-09 M, 5mJ/cm2 UV): 3.1522 and 3.1435
- WST-1 reading (source data of fractional survival) (HCT116 cells [1]; 1.56E-09 M, 125 mJ/cm2 UV): 1.3637 and 1.8262
- WST-1 reading (source data of fractional survival) (HCT116 cells [1]; 1.56E-09 M, no UV): 3.1762 and 3.2869
- WST-1 reading (source data of fractional survival) (HCT116 cells [1]; 2.00E-07 M, 5mJ/cm2 UV): 0.1417 and 0.1383
- WST-1 reading (source data of fractional survival) (HCT116 cells [1]; 2.00E-07 M, 125 mJ/cm2 UV): 0.1411 and 0.1324
- WST-1 reading (source data of fractional survival) (HCT116 cells [1]; 2.00E-07 M, no UV): 0.3331 and 0.2744
- WST-1 reading (source data of fractional survival) (HCT116 cells [1]; 2.50E-08 M, 5mJ/cm2 UV): 0.4834 and 0.4002
- WST-1 reading (source data of fractional survival) (HCT116 cells [1]; 2.50E-08 M, 125 mJ/cm2 UV): 0.1513 and 0.1801
- WST-1 reading (source data of fractional survival) (HCT116 cells [1]; 2.50E-08 M, no UV): 2.611 and 2.0841
- WST-1 reading (source data of fractional survival) (HCT116 cells [1]; 3.13E-09 M, 5mJ/cm2 UV): 2.2833 and 2.9624
- WST-1 reading (source data of fractional survival) (HCT116 cells [1]; 3.13E-09 M, 125 mJ/cm2 UV): 0.7443 and 0.527
- WST-1 reading (source data of fractional survival) (HCT116 cells [1]; 3.13E-09 M, no UV): 3.0831 and 3.1401
- WST-1 reading (source data of fractional survival) (HCT116 cells [1]; 3.91E-10 M, 5mJ/cm2 UV): 3.2465 and 3.2794
- WST-1 reading (source data of fractional survival) (HCT116 cells [1]; 3.91E-10 M, 125 mJ/cm2 UV): 2.6106 and 3.2813
- WST-1 reading (source data of fractional survival) (HCT116 cells [1]; 3.91E-10 M, no UV): 3.2563 and 3.2975
- WST-1 reading (source data of fractional survival) (HCT116 cells [1]; 5.00E-08 M, 5mJ/cm2 UV): 0.1995 and 0.2071
- WST-1 reading (source data of fractional survival) (HCT116 cells [1]; 5.00E-08 M, 125 mJ/cm2 UV): 0.1444 and 0.1401
- WST-1 reading (source data of fractional survival) (HCT116 cells [1]; 5.00E-08 M, no UV): 0.8754 and 0.871
- WST-1 reading (source data of fractional survival) (HCT116 cells [1]; 6.25E-09 M, 5mJ/cm2 UV): 2.1762 and 2.4422
- WST-1 reading (source data of fractional survival) (HCT116 cells [1]; 6.25E-09 M, 125 mJ/cm2 UV): 0.3527 and 0.3295
- WST-1 reading (source data of fractional survival) (HCT116 cells [1]; 6.25E-09 M, no UV): 2.9424 and 3.2905
- WST-1 reading (source data of fractional survival) (HCT116 cells [1]; 7.81E-10 M, 5mJ/cm2 UV): 3.2172 and 3.1228
- WST-1 reading (source data of fractional survival) (HCT116 cells [1]; 7.81E-10 M, 125 mJ/cm2 UV): 2.9376 and 2.9926
- WST-1 reading (source data of fractional survival) (HCT116 cells [1]; 7.81E-10 M, no UV): 3.2642 and 3.2669
- potentiation of UVA-induced cytotoxicity (HCT116 cells [1]; UV 5 mJ/cm^2 and 125 mJ/cm^2): Strong potentiation
- potentiation of CPD formation by UVA (U2OS cells): strong potentiation
- ROS in the presence of UVA (ratio after/before UVA) (HCT116 cells [2]): markedly increased
- synthetic lethality [3]: synthetically lethal
- G4 binding and stabilization (G-quadruplex (G4) DNA): potent G4 binder and stabilizer
